Measurements: patent US20160022636A1, “PHYSIOLOGICAL LIGANDS FOR GPR139” (JANSSEN PHARMACEUTICA NV, priority 2013, published 2016)
Where “and” joins values, the source holds several entries; their conditions need not be identical. Identical values can stand only once.

biological target: T1, GPR139 (Homo sapiens, UniProt Q6DWJ6); assay: GTPγS binding assay, membranes from COS7 cells co-expressing GPR139 and GO2Q, single concentration screen; assay type: biochemical; parameters: expressed in transfected cells; host or cells: COS7; conditions: 1 mM final concentration; single wells of triplicate; COS7 membranes co-expressing GPR139 and GO2Q
T1 sequence (Q6DWJ6 1-353): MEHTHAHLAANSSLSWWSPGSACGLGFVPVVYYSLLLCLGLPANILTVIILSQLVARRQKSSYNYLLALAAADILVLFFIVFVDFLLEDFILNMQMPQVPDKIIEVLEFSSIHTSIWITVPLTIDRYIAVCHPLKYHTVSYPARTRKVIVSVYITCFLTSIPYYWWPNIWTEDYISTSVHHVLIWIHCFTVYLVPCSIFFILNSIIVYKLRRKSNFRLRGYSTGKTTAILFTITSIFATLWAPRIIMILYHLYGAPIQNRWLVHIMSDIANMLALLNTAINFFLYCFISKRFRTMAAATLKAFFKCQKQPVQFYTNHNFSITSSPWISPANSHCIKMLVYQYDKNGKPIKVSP
Method: (§1) In order identify the ligands for GPR139 two improvements in the detection assay were made to allow for the ligands to be detected. First, we chose to use a GTPγS binding assay instead of using live cultured cells. The GTPγS binding assay is a cell free system that uses the cell membrane of the cell(s) of interest rather than the live cell(s). One advantage of this assay is that potential ligands present in the cell culture media are washed away when the cell membrane is prepared. This reduces the basal level of signal and increase the chance of detecting receptor ligands when assessing compounds that activate the receptor. Second, a GO2Q chimeric G-protein was created to be co-expressed with GPR139 in order to increase the signal-to-noise ratio in the GTPγS binding assay. Historically, the Gi, Go coupled GPCRs offer much greater signal-to-noise ratio in GTPγS binding studies. For Gs and Gq coupled GPCRs, although ligand-stimulated specific signals can be detected in a GTPγS binding assay, the signal-to-noise ratios are often very small. To address this a chimeric GO2-Gq chimeric G-protein, GO2Q, with the N-terminus from Go2 protein and the C-terminus from Gq protein.
(§2) To test for compounds that activate GPR139, different amino acids and their derivatives (Table 2) were tested as ligands in the GTPγS binding assay using cell membranes from COS7 cells co-expressing GPR139 and GO2Q. Cell membrane from COS7 cells expressing GO2Q alone or co-expressing other GPCRs were also tested in GTPγS binding assay in parallel as controls. Each compound was tested in triplicate.

Row | Structure (SMILES) | Activation levels of GPR139 (GTPγS binding signal), GPR139-GO2Q
1 | C[C@H](N)C(=O)O [Ala] | 2363 and 2348 and 2439
2 | N[C@@H](CO)C(=O)O [Ser] | 2605 and 2458 and 2545
3 | CC(C)C[C@H](N)C(=O)O [Leu] | 2621 and 2544 and 2437
4 | O=C(O)[C@@H]1CCCN1 [Pro] | 2719 and 2657 and 2786
5 | NCCc1ccc(O)cc1 [Tyramine] | 2883 and 2932 and 2873
6 | NCCCC[C@H](N)C(=O)O [Lys] | 2433 and 2617 and 2589
7 | NCCc1c[nH]cn1 [HA, histamine] | 2737 and 2863 and 2899
8 | N[C@@H](CC(=O)O)C(=O)O [Asp] | 2758 and 2922 and 2925
9 | CSCC[C@H](N)C(=O)O [Met] | 2657 and 2829 and 2802

biological target: T1, GPR139; assay: calcium mobilization assay (FLIPR), GPR139 transiently expressed in HEK293 cells; assay type: cell-based; parameters: expressed in transfected cells; host or cells: HEK293; conditions: HEK293, read-out: % L-phenylalanine at 300 μM (average)
Text: For these experiments human GPR139 was transiently expressed in HEK293 cells and calcium mobilization was stimulated using L-Trp, L-Phe or their derivatives.

Row | Structure (SMILES) | activation at 300 µM
10 | N[C@H](Cc1ccc(Br)cc1)C(=O)O [4-Bromo-D-phenylalanine] | 139%
11 | N[C@@H](Cc1ccc([N+](=O)[O-])cc1[N+](=O)[O-])C(=O)O [2,4-Dinitro-L-phenylalanine] | 95%
12 | N[C@@H](Cc1ccc(Br)cc1)C(=O)O [4-Bromo-L-phenylalanine] | 153%

same assay, conditions: HEK293; calcium mobilization at 300 μM as percentage of that observed for L-phenylalanine; read-out: % L-phenylalanine at 300 μM (average)

Row | activation at 300 µM | Structure (SMILES)
13 | 145% | N[C@H](Cc1c(F)c(F)c(F)c(F)c1F)C(=O)O [2,3,4,5,6-Pentafluoro-D-phenylalanine]
14 | 135% | N[C@H](Cc1ccccc1Br)C(=O)O [2-Bromo-D-phenylalanine]
15 | 134% | Cc1ccccc1C[C@H](N)C(=O)O [2-Methyl-L-phenylalanine]
16 | 135% | N[C@H](Cc1ccc(Cl)cc1Cl)C(=O)O [2,4-Dichloro-D-phenylalanine]
17 | 93% | N#Cc1cccc(C[C@@H](N)C(=O)O)c1 [3-Cyano-D-phenylalanine]
18 | 109% | Cc1ccccc1C[C@@H](N)C(=O)O [2-Methyl-D-phenylalanine]
19 | 110% | N[C@@H](Cc1ccccc1C(F)(F)F)C(=O)O [2-Trifluoromethyl-L-phenylalanine]
20 | 113% | Cc1ccc(C[C@H](N)C(=O)O)c(C)c1 [2,4-Dimethyl-L-phenylalanine]
21 | 150% | N[C@@H](Cc1ccccc1[N+](=O)[O-])C(=O)O [2-Nitro-L-phenylalanine]
22 | 122% | N[C@@H](Cc1ccc(Cl)cc1Cl)C(=O)O [2,4-Dichloro-L-phenylalanine]
23 | 102% | Cc1ccc(C[C@@H](N)C(=O)O)cc1 [4-Methyl-D-phenylalanine]
24 | 150% | N[C@@H](Cc1ccc(C(F)(F)F)cc1)C(=O)O [4-Trifluoromethyl-L-phenylalanine]
25 | 133% | N[C@@H](Cc1cccc(C(F)(F)F)c1)C(=O)O [3-Trifluoromethyl-L-phenylalanine]
26 | 164% | N[C@H](Cc1cccc([N+](=O)[O-])c1)C(=O)O [3-Nitro-D-Phenylalanine]
27 | 167% | N[C@@H](Cc1cccc(Br)c1)C(=O)O [3-Bromo-L-phenylalanine]
28 | 129% | N[C@H](CCCc1ccccc1)C(=O)O [D-2-Amino-5-phenyl-pentanoic acid]
29 | 111% | N[C@H](Cc1ccc([N+](=O)[O-])cc1)C(=O)O [4-Nitro-D-phenylalanine]
30 | 149% | Cc1ccc(C[C@H](N)C(=O)O)cc1 [4-Methyl-L-phenylalanine]
31 | 117% | N[C@H](C(=O)O)C(c1ccccc1)c1ccccc1 [3,3-Diphenyl-L-alanine]
32 | 94% | N[C@H](Cc1cccc(F)c1)C(=O)O [3-Fluoro-D-phenylalanine]

More lines, now with the values behind:

Row | Structure (SMILES) | activation at 300 µM
33 | N[C@H](Cc1cc(F)cc(F)c1)C(=O)O [3,5-Difluoro-D-phenylalanine] | 102%
34 | Cc1ccc(C[C@@H](N)C(=O)O)c(C)c1 [2,4-Dimethyl-D-phenylalanine] | 101%
35 | N[C@@H](Cc1cccc(F)c1)C(=O)O [3-Fluoro-L-phenylalanine] | 114%
36 | N[C@H](Cc1ccc(I)cc1)C(=O)O [4-Iodo-D-phenylalanine] | 125%
37 | C[C@](N)(Cc1ccc(F)cc1)C(=O)O [α-methyl-4-Fluoro-L-phenylalanine] | 125%
38 | N[C@@H](Cc1cccc(Cl)c1)C(=O)O [3-Chloro-L-phenylalanine] | 145%
39 | N[C@H](Cc1ccc(Cl)c(Cl)c1)C(=O)O [3,4-Dichloro-D-phenylalanine] | 149%
40 | CC(C)(C)c1ccc(C[C@H](N)C(=O)O)cc1 [4-tert-Butyl-L-phenylalanine] | 115%
41 | Cc1cccc(C[C@H](N)C(=O)O)c1 [3-Methyl-L-phenylalanine] | 147%
42 | N[C@@H](Cc1ccccc1F)C(=O)O [2-Fluoro-L-phenylalanine] | 119%
43 | N[C@@H](Cc1ccc(F)cc1)C(=O)O [4-Fluoro-L-phenylalanine] | 132%
44 | N[C@@H](Cc1ccc(I)cc1)C(=O)O [4-Iodo-L-phenylalanine] | 116%
45 | N[C@H](Cc1ccc(Cl)cc1)C(=O)O [4-Chloro-D-phenylalanine] | 110%
46 | Cc1cccc(C[C@@H](N)C(=O)O)c1 [3-Methyl-D-phenylalanine] | 150%
47 | N[C@@H](Cc1cccc([N+](=O)[O-])c1)C(=O)O [3-Nitro-L-phenylalanine] | 131%
48 | N[C@@H](Cc1ccc(Cl)cc1)C(=O)O [4-Chloro-L-phenylalanine] | 146%
49 | N[C@@H](Cc1ccc(Cl)c(Cl)c1)C(=O)O [3,4-Dichloro-L-phenylalanine] | 149%
50 | N#Cc1cccc(C[C@H](N)C(=O)O)c1 [3-Cyano-L-phenylalanine] | 115%
51 | CC(C)(C)OC(=O)N1Cc2ccccc2C[C@@H]1C(=O)O [(3R)-2-tert-butoxycarbonyl-3,4-dihydro-1H-isoquinoline-3-carboxylic acid] | 155%
52 | N[C@H](Cc1ccc(F)cc1)C(=O)O [4-Fluoro-D-phenylalanine] | 91%
53 | N[C@H](Cc1ccc(F)c(F)c1)C(=O)O [3,4-Difluoro-D-phenylalanine] | 121%
54 | N[C@@H](Cc1ccccc1Br)C(=O)O [2-Bromo-L-phenylalanine] | 168%
55 | COc1ccc(C[C@H](N)C(=O)O)cc1 [4-Methoxy-L-phenylalanine] | 128%
56 | N[C@H](Cc1cccc(Cl)c1)C(=O)O [3-Chloro-D-phenylalanine] | 147%
57 | N[C@H](Cc1cccc(Br)c1)C(=O)O [3-Bromo-D-phenylalanine] | 172%

same assay, conditions: calcium mobilization at 300 μM as percentage of that observed for L-phenylalanine

Row | % L-phenylalanine at 300 μM (average) | Structure (SMILES)
58 | 151% | N[C@@H](Cc1ccc(Br)s1)C(=O)O [2-(5-bromothienyl)-L-alanine]
59 | 151% | O=C(O)[C@@H]1Cc2c([nH]c3ccccc23)CN1 [L-1,2,3,4-tetrahydronorharman-3-carboxylic acid]

Further lines, the compound ahead of its results:

Row | Structure (SMILES) | % L-phenylalanine at 300 μM (average)
60 | N[C@H](CCc1ccccc1)C(=O)O [d-Homo-phenylalanine] | 105%
61 | N[C@H](Cc1ccc(Br)s1)C(=O)O [2-(5-bromothienyl)-D-alanine] | 154%

system: GO2Q alone; assay: GTPγS binding assay, control membranes from COS7 cells expressing GO2Q alone (Ct-GO2Q); assay type: biochemical; conditions: 1 mM final concentration; single wells of triplicate; COS7 membranes with GO2Q alone (control panel)
Text: Human (A and B) or mouse (C and D) GPR139 were co-transfected with chimeric G-protein GO2Q into COS7 cells. Cell membranes from transfected cells were used in GTPγS binding studies using various ligands at different concentrations to stimulate GPR139. Membranes from COS7 cells transfected by GO2Q were used as the controls (E and F).
as §1, §2

Row | Structure (SMILES) | Activation levels (GTPγS binding signal), Ct-GO2Q
62 | C[C@H](N)C(=O)O [Ala] | 1903 and 2049 and 2139
63 | N[C@@H](CO)C(=O)O [Ser] | 1975 and 2036 and 2164
64 | CC(C)C[C@H](N)C(=O)O [Leu] | 2194 and 2213 and 2167
65 | O=C(O)[C@@H]1CCCN1 [Pro] | 2256 and 2235 and 2329
66 | NCCc1ccc(O)cc1 [Tyramine] | 2132 and 2277 and 2369
67 | NCCCC[C@H](N)C(=O)O [Lys] | 2400 and 2138 and 2041
68 | NCCc1c[nH]cn1 [HA, histamine] | 2186 and 2204 and 2199
69 | N[C@@H](CC(=O)O)C(=O)O [Asp] | 2177 and 2137 and 2132
70 | CSCC[C@H](N)C(=O)O [Met] | 2173 and 2307 and 2276
